These results are taken from US20230136562A1, “SPIROUREA DERIVATIVES” (Idorsia Pharmaceuticals Ltd, priority 2020, published 2023).

The structures appear in SMILES notation. Structures can show the parent of a compound that is named as a salt. Where two headings read alike, the source gives them in different places.

One experiment deals with DBA/2J mice. Put plainly: Audiogenic seizure-sensitive mouse model of generalized convulsive seizures (AGS). The experiment is classed as in vivo. The conditions noted are these: challenge 1 h, 90% MC 0.5% + 10% PEG400, read-out: Seizure stage [% vs. vehicle]; for change in vivo at 30 mg/kg: 30 mg/kg po. As for the experimental part: Formulation and Administration.
Compounds were formulated in a 10% polyethylene glycol 400 (PEG 400)/90% aqueous solution of 0.5% methylcellulose (MC 0.5%). Firstly drugs are dissolved in PEG 400 and then suspended in MC 0.5% for oral gavage at X mg/5 mL/kg (X see table).
Audiogenic Seizure-Sensitive Mouse Model of Generalized Convulsive Seizures
1. Procedure: Following two days of acclimatisation, auditory seizures are induced in male juvenile DBA/2J mice (22-24 days old). Each mouse is placed individually in the exposure chamber, an hemispheric acrylic glass dome (diameter: 50 cm) within a sound-attenuated box. The sound-attenuated box is equipped with two house lights and a camera system (Fire-I from Unibrain) in order to observe and record the behavioral seizure response. After 60 seconds of habituation, the stimulus, a mixed frequency tone of 15-20 kHz at 110 dB (SASLab Lite, Avisoft Bioacoustics), is played from a speaker that is placed on the top center of the dome. […] Seizures are classified as following: stage 0, normal behavior; stage 1, wild running; stage 2, generalized clonus; stage 3, tonic extension of the hind limbs.
2. Compounds testing: Acute compound effects on audiogenic generalized convulsive seizures are evaluated in independent groups of 8-10 mice randomly assigned. Following oral administration of compound or vehicle, the maximum seizure stage during sound exposure is assessed. Compounds are given 1 hour before exposure to the stimulus. Each mouse is exposed to the auditory stimulus only once and euthanized afterwards by CO2 inhalation.

The test system of experiment [1] is primary neuronal cultures from embryonic rat brains. Put plainly: Rat oscillation assay (FLIPR, neuronal calcium oscillations). It is filed as cell-based. The gist of the method: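 Cortical neurons from E18 Wistar rat embryos, cultured 8–10 days at high density, loaded with 1 μM Fluo-8 AM; calcium oscillations recorded by FLIPR once per second in Mg-free HBSS with 2 mM CaCl2, 20 mM HEPES, pH 7.4. Two acquisitions ("Acute", 500 sec, compound added at 250 sec; "20 min"), ± Kv7 blocker XE-991.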

A further experiment deals with T1, Kv7.2/7.3 (Homo sapiens, UniProt O43525+O43526).
T1 construct: expressed in transfected cells; host or cells: HEK293
Description: Kv7.2/3 assay (FLIPR potassium assay, agonist mode). It is filed as cell-based. The conditions noted are these: Kv7.2/7.3 activation; HEK293 cells, human KCNQ2 and KCNQ3. As for the experimental part: HEK293 cells were stably transfected with the appropriate ion channel cDNA(s) (human KCNQ2 and KCNQ3 genes). Cells were cultured in Dulbecco's Modified Eagle Medium/Nutrient mixture F-12 (D-MEM/F-12) supplemented with 10% fetal bovine serum, 100 U/mL penicillin G sodium, 100 µg/mL streptomycin sulfate and selection antibiotics. FLIPR Test Procedure: For FLIPR assay, cells were plated in 384-well black clear-bottomed microtiter plates (BD Biocoat Poly-D-Lysine Multiwell Cell Culture Plate) at 15'000 to 30'000 cells per well. Cells were incubated at 37° C. overnight or until cells reached sufficient density in the wells (near confluent monolayer) to use in fluorescence assays. […] Assays were performed with the FLIPR potassium assay kit (Molecular Devices) according to the manufacturer's instructions. Dye-loading: Growth media was removed and replaced with 20 μL of dye loading buffer for 60 min at room temperature. FLIPR Recording (agonist mode): Stock solutions of test compounds were prepared at a concentration of 33.3 mM in DMSO. 5 μL of 5× concentrated test, vehicle, or control compounds solutions prepared in the stimulation buffer (K^+-free buffer with 5 mM TI^+) were added to each well and fluorescence recording was continued for 5 min. The agonist effect (EC50 and % effect) of test or control compounds on Kv7 channels was determined as follows: Raw data was exported using Screenworks® 4.2 software and the fluorescence traces were analysed using Microsoft Excel (Microsoft Corp., Redmond, Wash.). The test compounds responses were expressed as % of maximum response of the control compound Flupirtine (Sigma-Aldrich), which was tested at concentrations ranging from 0.03 to 100 μM. Concentration-response data were fitted to a Hill equation. Non-linear least squares fits were made assuming a simple binding model. If appropriate, fits were weighted by the standard deviation. No assumptions about the fit parameters were made; the fit parameters were determined by the algorithm.

Setting [2] is: Rattus norvegicus, 20 min, AUC of fluorescence measured 20 min after compound addition, read-out: FLIPR: IC50 [nM] 20 min.
[3] abbreviates: Rattus norvegicus, Acute phase, ratio of AUC fluorescence before and after compound addition, read-out: FLIPR: IC50 [nM] acute.
[4] abbreviates: AUC of fluorescence measured 20 min after compound addition, read-out: FLIPR: IC50 [nM] 20 min.
Setting [5] is: Acute phase, ratio of AUC fluorescence before and after compound addition, read-out: FLIPR: IC50 [nM] acute.

Regarding `C[C@H](NC(=O)NC1CC2(CCC2)C1)c1cc(OCC(F)(F)F)ncn1` (single isomer, unassigned) [Example 182], in the experiment with DBA/2J mice (5 mg/kg po), the change in vivo at 5 mg/kg is -100%. Moreover, the values for the IC50 in experiment [1] (setting [2]) and in experiment [1] (setting [3]) were 13 nM and 11 nM, respectively.
For the molecule `O=C(NCc1ccnc(OCC(F)(F)F)c1)NC1CC2(CC2)C1` [Example 159, 1-Spiro[2.3]hex-5-yl-3-[2-(2,2,2-trifluoro-ethoxy)-pyridin-4-ylmethyl]-urea], the change in vivo at 30 mg/kg in the experiment with DBA/2J mice is -100%. Also, the IC50 was 47 nM in experiment [1] (setting [2]) and 26 nM in experiment [1] (setting [3]).
`COCC(Oc1cc(CNC(=O)NC2CC3(CCC3)C2)ccn1)C(F)(F)F` (single isomer, unassigned) [Example 172, 1-Spiro[3.3]hept-2-yl-3-[2-(2,2,2-trifluoro-1-methoxymethyl-ethoxy)-pyridin-4-ylmethyl]-urea]: in the experiment on DBA/2J mice, the change in vivo at 30 mg/kg was -81%. The IC50 was determined as 37 nM in experiment [1] (setting [4]) and 38 nM in experiment [1] (setting [5]).
Turning to `O=C(NCc1ccnc(OCC(F)(F)F)c1)NC1CC2(CCC2)C1` [Example 103, 1-Spiro[3.3]hept-2-yl-3-[2-(2,2,2-trifluoro-ethoxy)-pyridin-4-ylmethyl]-urea], the IC50 was 7.4 nM in experiment [1] (setting [2]) and 4.8 nM in experiment [1] (setting [3]). On Kv7.2/7.3, this molecule displayed an EC50 of 0.0015 µM.
Regarding `O=C(NCc1ccnc(OCC(F)(F)F)c1)NC1CC2(C1)CC(F)(F)C2` [Example 160, 1-(6,6-Difluoro-spiro[3.3]hept-2-yl)-3-[2-(2,2,2-trifluoro-ethoxy)-pyridin-4-ylmethyl]-urea], the change in vivo at 30 mg/kg in the experiment with DBA/2J mice was -100%. Moreover, the half-inhibitory concentration (IC50) was determined as 253 nM in experiment [1] (setting [2]) and 83 nM in experiment [1] (setting [3]).
For `C[C@H](NC(=O)NC1CC2(CCC2)C1)c1ccc(F)c(OCC(F)(F)F)c1` (single isomer, unassigned) [Example 177], the IC50 in experiment [1] (setting [2]) is 24 nM; in experiment [1] (setting [3]), 22 nM. On Kv7.2/7.3, a half-maximal effect (EC50) was put at 0.007 µM.
For the molecule `C[C@H](NC(=O)NC1CC2(CCC2)C1)c1cccc(C(F)(F)F)c1` (single isomer, unassigned) [Example 175], the values for the half-inhibitory concentration (IC50) in experiment [1] (setting [2]) and in experiment [1] (setting [3]) were 5.5 nM and 9 nM, respectively. This molecule yielded a half-maximal effective concentration (EC50) on Kv7.2/7.3 of 0.03 µM.
In the same order, the values of `O=C(NCc1cccc(C2(C(F)(F)F)CC2)c1)NC1CC2(CCC2)C1` [Example 37, 1-Spiro[3.3]hept-2-yl-3-[3-(1-trifluoromethyl-cyclopropyl)-benzyl]-urea] are 8.1 nM, 10 nM and 0.0015 µM.
Turning to `O=C(NCc1cccc(OC(F)F)c1)NC1CC2(CC2)C1` [Example 155, 1-(3-Difluoromethoxy-benzyl)-3-spiro[2.3]hex-5-yl-urea], the change in vivo at 30 mg/kg in the experiment on DBA/2J mice is -100%. Moreover, the IC50 in experiment [1] (setting [2]) was determined as 163 nM; in experiment [1] (setting [3]), 151 nM.
On to `O=C(NCc1ccnc(NCC(F)(F)F)c1)NC1CC2(CCC2)C1` [Example 116, 1-Spiro[3.3]hept-2-yl-3-[2-(2,2,2-trifluoro-ethylamino)-pyridin-4-ylmethyl]-urea], for which the figures for the 50% inhibitory concentration (IC50) in experiment [1] (setting [2]) and in experiment [1] (setting [3]) were 609 nM and 530 nM, respectively. The molecule also displayed a concentration for a half-maximal effect (EC50) on Kv7.2/7.3 of 0.161 µM.
Consider `O=C(NCc1cccc(C(F)(F)F)c1)NC1CC2(CCC2)C1` [Example 1, 1-Spiro[3.3]hept-2-yl-3-(3-trifluoromethyl-benzyl)-urea], for which the IC50 in experiment [1] (setting [2]) was 20 nM; in experiment [1] (setting [3]) it was 27 nM. This molecule also gave an EC50 at Kv7.2/7.3 of 0.03 µM.
On to `Cc1nc(CNC(=O)NC2CC3(CCC3)C2)cc(OCC(F)(F)F)n1` [Example 60, 1-[2-Methyl-6-(2,2,2-trifluoro-ethoxy)-pyrimidin-4-ylmethyl]-3-spiro[3.3]hept-2-yl-urea], for which the concentration for half-maximal inhibition (IC50) in experiment [1] (setting [2]) came out at 144 nM; in experiment [1] (setting [3]), 109 nM. At Kv7.2/7.3, this molecule yielded an EC50 of 0.042 µM.
Regarding `CC(NC(=O)NC1CC2(CCC2)C1)c1ccnc(OC(F)F)c1` (racemic) [Example 100 (HCl salt), (±)-1-[1-(2-Difluoromethoxy-pyridin-4-yl)-ethyl]-3-spiro[3.3]hept-2-yl-urea], the change in vivo at 33 mg/kg in the experiment on DBA/2J mice (33 mg/kg po) was -71%.
`CC(Oc1cccc(C2(NC(=O)NC3CC4(CCC4)C3)CC2)c1)C(F)(F)F` (single isomer, unassigned) [Example 170, 1-Spiro[3.3]hept-2-yl-3-{1-[3-(2,2,2-trifluoro-1-methyl-ethoxy)-phenyl]-cyclopropyl}-urea]: the 50% inhibitory concentration (IC50) in experiment [1] (setting [4]) stood at 59 nM; in experiment [1] (setting [5]), 76 nM.
With `O=C(NC1CC2(CCC2)C1)NC(c1cccc(C(F)(F)F)c1)C1CC1` (racemic) [Example 24, (±)-1-[Cyclopropyl-(3-trifluoromethyl-phenyl)-methyl]-3-spiro[3.3]hept-2-yl-urea], the values for the IC50 in experiment [1] (setting [2]) and in experiment [1] (setting [3]) were 8.6 nM and 14 nM, respectively.
The corresponding values for `CSCCC(NC(=O)NC1CC2(CCC2)C1)c1cccc(C(F)(F)F)c1` (racemic) [Example 75, (±)-1-[3-Methylsulfanyl-1-(3-trifluoromethyl-phenyl)-propyl]-3-spiro[3.3]hept-2-yl-urea] are 129 nM and 106 nM.
Take `CC(NC(=O)NC1CC2(CCC2)C1)c1cc(OCC(F)(F)F)ccc1F` (racemic) [Example 99, (±)-1-{1-[2-Fluoro-5-(2,2,2-trifluoro-ethoxy)-phenyl]-ethyl}-3-spiro[3.3]hept-2-yl-urea]: the IC50 worked out at 20 nM in experiment [1] (setting [2]) and 32 nM in experiment [1] (setting [3]).
As for `CCOCCC(NC(=O)NC1CC2(CCC2)C1)c1ccnc(OCC(F)(F)F)c1` (racemic) [Example 77, (±)-1-{3-Ethoxy-1-[2-(2,2,2-trifluoro-ethoxy)-pyridin-4-yl]-propyl}-3-spiro[3.3]hept-2-yl-urea], the 50% inhibitory concentration (IC50) is 226 nM in experiment [1] (setting [2]) and 279 nM in experiment [1] (setting [3]).

One may read the IC50 as the concentration that inhibits the measured activity by half. One may read the EC50 as the concentration giving half of the maximal effect. A high value points to lower potency in that assay.
